≈ marks a conversion by molar mass, not a printed value. Calls of active or inactive are those of the source. The rule behind the calls is not given here.
Assays:
[1] = tested on: Cell membrane; test: Disruption of membrane integrity in Acinetobacter baumannii ATCC 17978 assessed as increase in PI uptake at 16 ug/ml measured after 15 mins by SYTO9/PI staining based fluorometric analysis; settings: dose 16.0 µg/ml
[2] = tested on: Cell membrane; test: Disruption of membrane integrity in Enterococcus faecalis ATCC 19433 assessed as increase in PI uptake at 16 ug/ml measured after 15 mins by SYTO9/PI staining based fluorometric analysis; settings: dose 16.0 µg/ml
[3] = tested on: Cell membrane; test: Disruption of membrane integrity in Acinetobacter baumannii ATCC 17978 assessed as increase in PI uptake at 16 ug/ml measured after 1 hr by SYTO9/PI staining based fluorometric analysis; type: subcellular; settings: dose 16.0 µg/ml
[4] = Apparent permeability of the compound across bacterial inner membrane mimic pure POPG in PBS buffer at pH 7.4 incubated for 5 hrs by PAMPA based UV-Vis spectrophotometric analysis; type: ADME
[5] = tested on: Cell membrane; test: Disruption of membrane integrity in Staphylococcus aureus ATCC 25923 assessed as increase in PI uptake at 16 ug/ml measured after 1 hr by SYTO9/PI staining based fluorometric analysis; settings: dose 16.0 µg/ml
[6] = tested on: Cell membrane; test: Disruption of membrane integrity in Staphylococcus aureus ATCC 25923 assessed as increase in PI positive cells at 16 ug/ml measured after 1 hr by SYTO9/PI staining based confocal laser scanning microscope analysis; type: subcellular; settings: dose 16.0 µg/ml
[7] = Apparent permeability of the compound across bacterial inner membrane mimic POPE/POPG (6:4) in PBS buffer assessed as membrane retention at pH 7.4 incubated for 5 hrs by PAMPA based UV-Vis spectrophotometric analysis; type: ADME, cell membranes; settings: pH 7.4, 5 h
[8] = tested on: Cell membrane; test: Disruption of membrane integrity in Bacillus subtilis ATCC 6633 assessed as increase in PI uptake at 16 ug/ml measured after 15 mins by SYTO9/PI staining based fluorometric analysis; settings: dose 16.0 µg/ml
[9] = tested on: Lipid bilayer; test: Binding affinity to bacterial membrane mimic POPG large unilamellar vesicle assessed as bathochromic shift at 125 uM measured at t = 0 by UV-Vis spectrophotometric analysis
[10] = Hemolytic activity against human RBC at 16 ug/ml incubated for 30 mins relative to control; type: toxicity, cell-based, Erythrocyte; settings: human red blood cells (erythrocytes), at 16 µg/mL, read-out: Activity
[11] = tested on: Cell membrane; test: Disruption of membrane integrity in Pseudomonas aeruginosa ATCC 27853 assessed as increase in PI uptake at 16 ug/ml measured every 15 mins for 6 hrs by SYTO9/PI staining based fluorometric analysis; settings: dose 16.0 µg/ml
[12] = tested on: Cell membrane; test: Disruption of membrane integrity in Bacillus subtilis ATCC 6633 assessed as increase in PI uptake at 16 ug/ml measured after 1 hr by SYTO9/PI staining based fluorometric analysis; type: subcellular; settings: dose 16.0 µg/ml
[13] = tested on: Cell membrane; test: Disruption of membrane integrity in Staphylococcus aureus ATCC 25923 assessed as increase in PI uptake at 16 ug/ml measured every 15 mins for 6 hrs by SYTO9/PI staining based fluorometric analysis; type: subcellular; settings: dose 16.0 µg/ml
[14] = tested on: Cell membrane; test: Disruption of membrane integrity in Enterococcus faecalis ATCC 19433 assessed as increase in PI uptake at 16 ug/ml measured after 1 hr by SYTO9/PI staining based fluorometric analysis; type: subcellular; settings: dose 16.0 µg/ml
[15] = Apparent permeability of the compound across bacterial inner membrane mimic POPE/POPG (6:4) in PBS buffer at pH 7.4 incubated for 5 hrs by PAMPA based UV-Vis spectrophotometric analysis; type: ADME
[16] = tested on: Cell membrane; test: Disruption of membrane integrity in Escherichia coli MG1655 assessed as increase in PI positive cells at 16 ug/ml measured after 1 hr by SYTO9/PI staining based confocal laser scanning microscope analysis; type: subcellular; settings: dose 16.0 µg/ml
[17] = tested on: Lipid bilayer; test: Binding affinity to bacterial membrane mimic POPG large unilamellar vesicle assessed as hyperchromic shift at 125 uM measured after 1 hr by UV-Vis spectrophotometric analysis
[18] = Hemolytic activity against human RBC at 4 ug/ml incubated for 30 mins (reference value: 0%); type: toxicity, cell-based, Erythrocyte; settings: human red blood cells (erythrocytes), at 4 µg/mL, read-out: Activity
[19] = Hemolytic activity against human RBC at 8 ug/ml incubated for 30 mins (reference value: 0%); type: toxicity, cell-based, Erythrocyte; settings: human red blood cells (erythrocytes), at 8 µg/mL, read-out: Activity
[20] = tested on: Cell membrane; test: Disruption of membrane integrity in Pseudomonas aeruginosa ATCC 27853 assessed as increase in PI positive cells at 16 ug/ml measured after 1 hr by SYTO9/PI staining based confocal laser scanning microscope analysis; type: subcellular; settings: dose 16.0 µg/ml
[21] = tested on: Cell membrane; test: Disruption of membrane integrity in Escherichia coli MG1655 assessed as increase in PI uptake at 16 ug/ml measured after 1 hr by SYTO9/PI staining based fluorometric analysis; type: subcellular; settings: dose 16.0 µg/ml
[22] = Hemolytic activity against human RBC at 2 ug/ml incubated for 30 mins (reference value: 0%); type: toxicity, cell-based, Erythrocyte; settings: human red blood cells (erythrocytes), at 2 µg/mL, read-out: Activity
[23] = tested on: Cell membrane; test: Disruption of membrane integrity in Escherichia coli MG1655 assessed as increase in PI uptake at 16 ug/ml measured every 15 mins for 6 hrs by SYTO9/PI staining based fluorometric analysis; settings: dose 16.0 µg/ml
[24] = Apparent permeability of the compound across bacterial inner membrane mimic pure POPG in PBS buffer assessed as membrane retention at pH 7.4 incubated for 5 hrs by PAMPA based UV-Vis spectrophotometric analysis; type: ADME, cell membranes; settings: pH 7.4, 5 h
[25] = Hemolytic activity against human RBC at 1 ug/ml incubated for 30 mins (reference value: 0%); type: toxicity, cell-based, Erythrocyte; settings: human red blood cells (erythrocytes), at 1 µg/mL, read-out: Activity
[26] = tested on: Cell membrane; test: Disruption of membrane integrity in Pseudomonas aeruginosa ATCC 27853 assessed as increase in PI uptake at 16 ug/ml measured after 1 hr by SYTO9/PI staining based fluorometric analysis; type: subcellular; settings: dose 16.0 µg/ml
[27] = tested on: Cell membrane; test: Disruption of membrane integrity in Acinetobacter baumannii ATCC 17978 assessed as increase in PI positive cells at 16 ug/ml measured after 1 hr by SYTO9/PI staining based confocal laser scanning microscope analysis; settings: dose 16.0 µg/ml
[28] = tested on: Cell membrane; test: Disruption of membrane integrity in Bacillus subtilis ATCC 6633 assessed as increase in PI positive cells at 16 ug/ml measured after 1 hr by SYTO9/PI staining based confocal laser scanning microscope analysis; type: subcellular; settings: dose 16.0 µg/ml
[29] = Hemolytic activity against human RBC at 64 ug/ml incubated for 30 mins (reference value: 0%); type: toxicity, cell-based, Erythrocyte; settings: human red blood cells (erythrocytes), at 64 µg/mL, read-out: Activity
[30] = Hemolytic activity against human RBC at 32 ug/ml incubated for 30 mins (reference value: 0%); type: toxicity, cell-based, Erythrocyte; settings: human red blood cells (erythrocytes), at 32 µg/mL, read-out: Activity
[31] = tested on: Cell membrane; test: Disruption of membrane integrity in Enterococcus faecalis ATCC 19433 assessed as increase in PI positive cells at 16 ug/ml measured after 1 hr by SYTO9/PI staining based confocal laser scanning microscope analysis; type: subcellular; settings: dose 16.0 µg/ml
[32] = tested on: Streptococcus pyogenes; test: Antibacterial activity against Streptococcus pyogenes ATCC 12344 assessed as bacterial growth inhibition incubated for 18 hrs by micro-dilution broth method; type: functional
[33] = tested on: Bacillus subtilis; test: Antibacterial activity against Bacillus subtilis ATCC 6633 assessed as bacterial growth inhibition incubated for 18 hrs by CLSI based micro-dilution broth method; type: functional
[34] = Apparent permeability of the compound across bacterial inner membrane mimic PC-phospholipids in PBS buffer assessed as membrane retention at pH 7.4 incubated for 5 hrs by PAMPA based UV-Vis spectrophotometric analysis; type: ADME, cell membranes; settings: pH 7.4, 5 h
[35] = tested on: Staphylococcus aureus; test: Antibacterial activity against Staphylococcus aureus ATCC 25923 assessed as bacterial growth inhibition incubated for 18 hrs by micro-dilution broth method; type: functional
[36] = Apparent permeability of the compound across bacterial inner membrane mimic PC-phospholipids in PBS buffer at pH 7.4 incubated for 5 hrs by PAMPA based UV-Vis spectrophotometric analysis; type: ADME
[37] = tested on: Escherichia coli; test: Antibacterial activity against Escherichia coli CCUG assessed as bacterial growth inhibition incubated for 18 hrs by micro-dilution broth method; type: functional
[38] = tested on: Acinetobacter baumannii; test: Antibacterial activity against Acinetobacter baumannii ATCC 17978 assessed as bacterial growth inhibition incubated for 18 hrs by micro-dilution broth method; type: functional
[39] = tested on: Enterococcus faecalis; test: Antibacterial activity against Enterococcus faecalis ATCC 19433 assessed as bacterial growth inhibition incubated for 18 hrs by micro-dilution broth method; type: functional
[40] = tested on: Klebsiella pneumoniae; test: Antibacterial activity against Klebsiella pneumoniae ATCC 13833 assessed as bacterial growth inhibition incubated for 18 hrs by micro-dilution broth method; type: functional
[41] = tested on: Pseudomonas aeruginosa; test: Antibacterial activity against Pseudomonas aeruginosa ATCC 27853 assessed as bacterial growth inhibition incubated for 18 hrs by micro-dilution broth method; type: functional
[42] = tested on: Klebsiella pneumoniae; test: Antibacterial activity against pan drug-resistant Klebsiella pneumoniae S1-081Rb assessed as bacterial growth inhibition incubated for 18 hrs by CLSI based micro-dilution broth method; type: functional
[43] = tested on: Acinetobacter baumannii; test: Antibacterial activity against Acinetobacter baumannii AC-54/97 assessed as bacterial growth inhibition incubated for 18 hrs by CLSI based micro-dilution broth method; type: functional
[44] = tested on: Enterobacter cloacae; test: Antibacterial activity against Enterobacter cloacae VA-417/02 assessed as bacterial growth inhibition incubated for 18 hrs by CLSI based micro-dilution broth method; type: functional

N=C(N)NCCCCCCCCN(CCCCCCCCNC(=N)NCC1CC1)C(=O)N(CCCCCCCCNC(=N)N)CCCCCCCCNC(=N)NCC1CC1
Activity [1]: Active
Activity [2]: Active
Activity [3]: Active
Papp at 5 h [4]: 1.88 ×10⁻⁶ cm/s
Activity [5]: Active
Activity [6]: Active
R% [7]: 42.4%
Activity [8]: Active
Activity [9]: Active
hemolysis at 0.5 h, 16 ug/ml [10]: 1.2%
Activity [11]: Active
Activity [12]: Active
Activity [13]: Active
Activity [14]: Active
Papp at 5 h [15]: 0.74 ×10⁻⁶ cm/s
Activity [16]: Active
Activity [17]: Active
hemolysis at 0.5 h, 4 ug/ml [18]: 0.4%
hemolysis at 0.5 h, 8 ug/ml [19]: 0.8%
Activity [20]: Active
Activity [21]: Active
hemolysis at 0.5 h, 2 ug/ml [22]: 0.2%
Activity [23]: Active
R% [24]: 46.1%
hemolysis at 0.5 h, 1 ug/ml [25]: 0%
Activity [26]: Active
Activity [27]: Active
Activity [28]: Active
hemolysis at 0.5 h, 64 ug/ml [29]: 3.4%
hemolysis at 0.5 h, 32 ug/ml [30]: 2%
Activity [31]: Active

N=C(N)NCCCCCCCCN(CCCCCCCCN)C(=O)N(CCCCCCCCN)CCCCCCCCNC(=N)N.O=C(O)C(F)(F)F
Activity [1]: Active
Activity [2]: Active
Activity [3]: Active
MIC [32]: 0.25 µg/mL
Papp at 5 h [4]: 0.19 ×10⁻⁶ cm/s
Activity [5]: Active
Activity [6]: Active
R% [7]: 47.3%
Activity [8]: Active
Activity [9]: Active
hemolysis at 0.5 h, 16 ug/ml [10]: 0.6%
Activity [11]: Active
MIC [33]: 0.5 µg/mL
Activity [12]: Active
R% [34]: 36.3%
MIC [35]: 0.5 µg/mL
Papp at 5 h [36]: 0.21 ×10⁻⁶ cm/s
Activity [13]: Active
Activity [14]: Active
Papp at 5 h [15]: 0.18 ×10⁻⁶ cm/s
MIC [37]: 2 µg/mL
Activity [16]: Active
Activity [17]: Active
hemolysis at 0.5 h, 4 ug/ml [18]: 0%
hemolysis at 0.5 h, 8 ug/ml [19]: 0%
MIC [38]: 16 µg/mL
Activity [20]: Active
Activity [21]: Active
hemolysis at 0.5 h, 2 ug/ml [22]: 0%
Activity [23]: Active
R% [24]: 52.4%
hemolysis at 0.5 h, 1 ug/ml [25]: 0%
Activity [26]: Active
MIC [39]: 8 µg/mL
Activity [27]: Active
Activity [28]: Active
hemolysis at 0.5 h, 64 ug/ml [29]: 2%
hemolysis at 0.5 h, 32 ug/ml [30]: 1.6%
MIC [40]: 16 µg/mL
MIC [41]: 32 µg/mL
Activity [31]: Active

N=C(N)NCCCCCCCCN(CCCCCCCCN)C(=O)N(CCCCCCCCNC(=N)N)CCCCCCCCNC(=N)N
MBC [42]: 16 µg/mL (≈ 23 µM)
MIC [42]: 16 µg/mL (≈ 23 µM)
MIC [32]: 0.25 µg/mL (≈ 0.36 µM)
MBC [43]: 8 µg/mL (≈ 11.5 µM)
MIC [43]: 8 µg/mL (≈ 11.5 µM)
MBC [44]: 8 µg/mL (≈ 11.5 µM)
MIC [44]: 8 µg/mL (≈ 11.5 µM)
Activity [9]: Active
MIC [33]: 1 µg/mL (≈ 1.44 µM)
MIC [35]: 1 µg/mL (≈ 1.44 µM)
MIC [37]: 2 µg/mL (≈ 2.88 µM)
Activity [17]: Active
MIC [38]: 16 µg/mL (≈ 23 µM)
MIC [39]: 4 µg/mL (≈ 5.75 µM)
MIC [40]: 8 µg/mL (≈ 11.5 µM)
MIC [41]: 16 µg/mL (≈ 23 µM)

Reference: ChEMBL document CHEMBL5154741, “Antibacterial alkylguanidino ureas: Molecular simplification approach, searching for membrane-based MoA” (Eur J Med Chem, 2022)
